Results: US7495027B2, “3-aryl-4-hydroxyfuranone compounds and the human and animal health use thereof” (Wyeth, priority 2003, dated 2009)

How the values were obtained:
[1] = target: T1, S. aureus UDP-N-acetylglucosamine enolpyruvoyl transferase, MurA (Staphylococcus aureus, UniProt P84058); test: Inhibitory activity against MurA (S. aureus); assay type: biochemical; conditions: (S) S. aureus enzyme
T1 sequence (P84058 1-421): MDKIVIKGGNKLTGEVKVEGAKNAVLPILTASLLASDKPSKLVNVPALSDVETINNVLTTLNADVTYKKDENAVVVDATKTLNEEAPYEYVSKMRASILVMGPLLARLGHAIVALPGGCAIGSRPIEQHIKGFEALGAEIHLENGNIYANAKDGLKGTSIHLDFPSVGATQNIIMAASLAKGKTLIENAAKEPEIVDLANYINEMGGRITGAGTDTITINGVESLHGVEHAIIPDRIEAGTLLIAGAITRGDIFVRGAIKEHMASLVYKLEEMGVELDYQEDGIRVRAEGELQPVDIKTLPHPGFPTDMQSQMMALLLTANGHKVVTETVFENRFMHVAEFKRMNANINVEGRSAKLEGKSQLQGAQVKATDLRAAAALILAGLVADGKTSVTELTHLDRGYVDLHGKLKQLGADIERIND
Experimental: Evaluation of the Inhibitory Activity of Test Compounds Against Enzymes which Catalyze Bacterial Cell Wall Biosynthesis
S. aureus and E. coli UDP-N-acetylglucosamine enolpyruvoyl transferase, MurA
Preparation of Enzyme Solution:
The enzyme solution is prepared by admixing the following: 50 mM Tris/HCl pH 8.0, […] 1 M Tris, 5 mM DTT, […] 1 M DTT, 20% Glycerol 4 ml 50% Glycerol, add water to 10 ml.
Preparation of Stop Solution:
The stop solution is prepared by mixing the following: 4.2% ammonium molybdate in 4N HCl, 8.4 g/200 ml 4N HCl, 0.045% malachite green, 90 mg/200 ml water, then stir 1 part ammonium molybdate with 2 parts malachite green for 30 min.
A procedure similar to that described by C. T. Walsh in Biochemistry 33, 10646-10651, is used to evaluate the inhibitory activity of test compounds against MurA, the enzyme which catalyzes the first step of bacterial cell wall biosynthesis. Experiments are performed by adding a solution of test compound (in a mixture of dimethylsulfoxide and water) and an enzyme solution to a well. After a pre-incubation period of 10 mintues at 37° C., Tris/BME buffer and assay buffer are added. A start point optical density (OD0) reading is taken at 340 nm immediately following the addition of assay buffer. After incubation for 1 hr at 37° C., the stop solution is added and the color is allowed to develop for 30 minutes. An end point OD1 reading at […] is then taken. […]

[2] = target: E. coli UDP-N-acetylglucosamine enolpyruvoyl transferase, MurA (Escherichia coli, UniProt P0A749); test: biochemical; conditions: (E) E. coli enzyme
Chain of E. coli UDP-N-acetylglucosamine enolpyruvoyl transferase, MurA (P0A749 whole entry): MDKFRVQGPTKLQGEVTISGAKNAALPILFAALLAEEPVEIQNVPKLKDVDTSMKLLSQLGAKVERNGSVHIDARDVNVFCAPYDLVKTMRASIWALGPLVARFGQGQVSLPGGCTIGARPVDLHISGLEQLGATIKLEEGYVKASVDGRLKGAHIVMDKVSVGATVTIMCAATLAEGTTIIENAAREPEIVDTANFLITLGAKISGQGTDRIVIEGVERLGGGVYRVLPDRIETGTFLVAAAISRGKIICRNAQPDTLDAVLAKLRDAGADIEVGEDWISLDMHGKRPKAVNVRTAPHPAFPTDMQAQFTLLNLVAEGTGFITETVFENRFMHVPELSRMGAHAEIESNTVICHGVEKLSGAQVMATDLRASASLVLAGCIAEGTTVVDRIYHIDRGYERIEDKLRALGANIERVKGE
How it was run: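 Enzyme in 50 mM Tris/HCl pH 8.0 with 5 mM DTT and 20% glycerol was pre-incubated 10 min at 37° C with test compound in DMSO/water. Tris/BME and assay buffer then started the 1 hr, 37° C reaction, with a baseline 340 nm reading taken at start. Stop solution followed, and colour developed 30 minutes.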

## COC(=O)c1ccc(C2=C(O)/C(=C/c3cccc4ccccc34)OC2=O)cc1 [Example 74]
[1]
  IC50: > 67.1 µM
other
  melting point: 242 to 244 °C

## O=Cc1cccc(C2=C(O)/C(=C/c3cccc4ccccc34)OC2=O)c1 [Example 76]
[1]
  IC50: 17.5 µM
other
  melting point: 220 to 221 °C

## COc1cccc(C2=C(O)/C(=C/c3cccc4ccccc34)OC2=O)c1 [Example 72]
[1]
  IC50: > 72.6 µM
other
  melting point: 214 to 216 °C

## O=C1O/C(=C\c2cccc3ccccc23)C(O)=C1c1ccc(C(F)(F)F)cc1 [Example 71]
[1]
  IC50: > 65.4 µM
other
  melting point: 245 to 247 °C

## O=C1O/C(=C\C2CCCCC2)C(O)=C1c1ccc(Cl)cc1 [Example 15]
[2]
  IC50: > 82 µM
other
  melting point: 200 to 205 °C

## O=C1O/C(=C\c2cccc3ccccc23)C(O)=C1c1cc(Cl)cc(Cl)c1 [Example 70]
[1]
  IC50: 39.1 µM
other
  melting point: 244 to 245 °C

## O=C1O/C(=C\c2ccc3ccccc3c2)C(O)=C1c1ccc(Cl)cc1 [Example 54]
[2]
  IC50: > 71.7 µM
other
  melting point: 284 to 286 °C

## O=C1O/C(=C\c2ccc(-c3ccccc3)cc2)C(O)=C1c1cccs1 [Example 144]
[1]
  IC50: > 72.2 µM
other
  melting point: 213 °C (dec.)

## O=C1O/C(=C\c2ccc(-c3ccccc3)cc2)C(O)=C1c1cccc(C(F)(F)F)c1 [Example 10]
[2]
  IC50: 2.45 µM
other
  melting point: 240 to 241.5 °C

## O=C1O/C(=C\c2ccc(-c3ccccc3)cc2)C(O)=C1c1ccc(Cl)cc1 [Example 53]
[2]
  IC50: > 66.7 µM
other
  melting point: 282 to 285 °C

## O=C1O/C(=C\c2ccc(Cl)cc2)C(O)=C1c1ccc(-c2ccccc2)c(F)c1 [Example 138]
[1]
  IC50: 17.8 µM
other
  melting point: 255 to 258 °C

## O=C1O/C(=C\c2ccc(-c3ccccc3)cc2)C(O)=C1c1cc(Cl)cc(Cl)c1 [Example 67]
[2]
  IC50: 7.33 µM
other
  melting point: 279 to 280 °C

## O=C1O/C(=C\c2ccc(-c3ccccc3)cc2)C(O)=C1c1csc2ccccc12 [Example 143]
[1]
  IC50: > 63.1 µM
other
  melting point: 270 °C

## O=C1O/C(=C\c2ccc(-c3ccccc3)cc2)C(O)=C1c1cccc(Cl)c1 [Example 69]
[2]
  IC50: 21.3 µM
other
  melting point: 248 to 250 °C

## O=C1O/C(=C\C2CCCCC2)C(O)=C1c1ccc(-c2ccccc2)cc1 [Example 100]
[2]
  IC50: > 72.2 µM
other
  melting point: 204 to 207 °C
